Source: ChEMBL document CHEMBL1152899, “Synthesis and preliminary screening of novel indole-3-methanamines as 5-HT4 receptor ligands” (Eur J Med Chem, 2009)
The source made the active and inactive calls. No cut-off for these calls is given here.

Columns and labels:
[1] = biological target: T1, 5-hydroxytryptamine receptor 4 (Homo sapiens, UniProt Q13639); test: Displacement of [3H]GR-113808 from human 5HT4b receptor expressed in COS7 cell membrane at 1 uM by scintillation counting; type: cell membranes; conditions: COS-7
T1 sequence (Q13639 whole entry): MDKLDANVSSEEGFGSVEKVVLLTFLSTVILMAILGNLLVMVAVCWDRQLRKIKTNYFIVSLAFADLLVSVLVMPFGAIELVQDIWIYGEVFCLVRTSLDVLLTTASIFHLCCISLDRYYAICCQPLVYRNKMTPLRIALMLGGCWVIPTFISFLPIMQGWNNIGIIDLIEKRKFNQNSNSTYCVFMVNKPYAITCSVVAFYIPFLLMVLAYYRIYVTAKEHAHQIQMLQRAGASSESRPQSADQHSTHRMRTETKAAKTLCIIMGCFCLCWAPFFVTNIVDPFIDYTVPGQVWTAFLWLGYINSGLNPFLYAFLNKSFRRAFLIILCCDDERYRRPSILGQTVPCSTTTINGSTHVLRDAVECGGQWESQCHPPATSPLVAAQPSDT

[2] = biological target: T1, 5-hydroxytryptamine receptor 4; test: Displacement of [3H]GR-113808 from human 5HT4b receptor expressed in COS7 cell membrane by scintillation counting
[3] = biological target: T1, 5-hydroxytryptamine receptor 4; test: Displacement of [3H]GR-113808 from human recombinant 5HT4b receptor expressed in HEK293 cells by scintillation counting; type: cell-based

SMILES	Activity [1]	Ki [2]	Ki [3]
COc1ccc2[nH]cc(CNN3CCOCC3)c2c1	Active	145 nM	–
COc1ccc2[nH]cc(CCN)c2c1 [5-METHOXYTRYPTAMINE]	–	26.9 nM	245 nM
